The assay addresses Recombinant Human Poly(ADP-Ribose) Polymerase (PARP), PARP-1 (Homo sapiens (Human), UniProt P09874). The following applies: read-out: PARP-1 (Ki); Table 1; text calls the values EC50s.
Sequence of Recombinant Human Poly(ADP-Ribose) Polymerase (PARP), PARP-1 (P09874 whole entry): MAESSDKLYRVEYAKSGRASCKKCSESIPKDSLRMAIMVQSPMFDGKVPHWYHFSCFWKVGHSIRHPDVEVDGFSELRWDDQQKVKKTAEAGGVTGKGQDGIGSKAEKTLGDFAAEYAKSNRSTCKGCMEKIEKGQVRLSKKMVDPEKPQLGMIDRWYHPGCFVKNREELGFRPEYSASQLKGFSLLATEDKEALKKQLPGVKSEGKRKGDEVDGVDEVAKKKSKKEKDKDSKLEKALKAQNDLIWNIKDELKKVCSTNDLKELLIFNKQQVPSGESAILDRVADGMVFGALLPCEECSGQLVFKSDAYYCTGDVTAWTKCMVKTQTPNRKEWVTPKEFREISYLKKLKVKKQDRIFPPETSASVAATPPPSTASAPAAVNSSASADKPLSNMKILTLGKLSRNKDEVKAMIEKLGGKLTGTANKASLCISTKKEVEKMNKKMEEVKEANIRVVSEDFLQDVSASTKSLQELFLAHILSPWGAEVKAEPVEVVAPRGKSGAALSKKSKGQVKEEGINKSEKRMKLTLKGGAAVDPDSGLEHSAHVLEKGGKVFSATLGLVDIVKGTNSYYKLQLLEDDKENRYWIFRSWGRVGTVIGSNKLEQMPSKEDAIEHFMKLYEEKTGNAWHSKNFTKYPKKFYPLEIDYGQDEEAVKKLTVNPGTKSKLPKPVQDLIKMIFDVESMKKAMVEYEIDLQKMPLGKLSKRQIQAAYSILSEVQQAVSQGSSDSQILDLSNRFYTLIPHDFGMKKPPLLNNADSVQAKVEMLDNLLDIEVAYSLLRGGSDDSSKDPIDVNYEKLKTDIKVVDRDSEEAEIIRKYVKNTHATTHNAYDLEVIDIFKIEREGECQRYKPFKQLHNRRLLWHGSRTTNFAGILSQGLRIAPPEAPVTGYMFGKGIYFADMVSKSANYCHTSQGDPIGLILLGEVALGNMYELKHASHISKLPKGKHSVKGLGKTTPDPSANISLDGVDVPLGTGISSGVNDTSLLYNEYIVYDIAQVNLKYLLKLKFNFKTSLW
Turning to `CC(Cc1n[nH]c(=O)c2c1CCCC2)c1ccc(F)c(-c2cccc(C(N)=O)c2)c1` (stereo not drawn) [Example 295, 2′-fluoro-5′-(1-methyl-2-(4-oxo-3,4,5,6,7,8-hexahydrophthalazin-1-yl)ethyl)-1,1′-biphenyl-3-carboxamide], the Ki was determined as 912 nM.

As for `CC(=O)Nc1cccc(-c2cc(C(C)Cc3n[nH]c(=O)c4c3CCCC4)ccc2F)c1` (stereo not drawn) [Example 296, N-(2′-fluoro-5′-(1-methyl-2-(4-oxo-3,4,5,6,7,8-hexahydrophthalazin-1-yl)ethyl)-1,1′-biphenyl-3-yl)acetamide], the inhibition constant Ki turned out to be 683 nM.

On to `CC(Cc1n[nH]c(=O)c2c1CCCC2)c1ccc(F)c(-c2cccc(CNS(C)(=O)=O)c2)c1` (stereo not drawn) [Example 297], for which the Ki turned out to be 1440 nM. For `O=C1C2CCCCC2C(=O)N1c1cc(Cc2n[nH]c(=O)c3c2CCCC3)ccc1F` (stereo not drawn) [Example 298, 2-(2-fluoro-5-((4-oxo-3,4,5,6,7,8-hexahydrophthalazin-1-yl)methyl)phenyl)hexahydro-1H-isoindole-1,3(2H)-dione] the value was 2 nM; for `CC1(C)CC(=O)N(c2cc(Cc3n[nH]c(=O)c4c3CCCC4)ccc2F)C1=O` [Example 299, 1-(2-fluoro-5-((4-oxo-3,4,5,6,7,8-hexahydrophthalazin-1-yl)methyl)phenyl)-3,3-dimethylpyrrolidine-2,5-dione], 4 nM. For `O=C1CCCC(=O)N1c1cc(Cc2n[nH]c(=O)c3c2CCCC3)ccc1F` [Example 303, 1-(2-fluoro-5-((4-oxo-3,4,5,6,7,8-hexahydrophthalazin-1-yl)methyl)phenyl)piperidine-2,6-dione] the value was 0.8 nM. Consider `O=c1[nH]nc(Cc2ccc(F)c(N3CCCS3(=O)=O)c2)c2c1CCCC2` [Example 305, 4-(3-(1,1-dioxidoisothiazolidin-2-yl)-4-fluorobenzyl)-5,6,7,8-tetrahydrophthalazin-1(2H)-one], for which the Ki came out at 3 nM. `O=C(NCc1cccs1)c1cccc(Cc2n[nH]c(=O)c3c2CCCC3)c1` [Example 309, 3-((4-oxo-3,4,5,6,7,8-hexahydrophthalazin-1-yl)methyl)-N-(thien-2-ylmethyl)benzamide]: the Ki was determined as 29 nM. For `O=C(NCc1ccsc1)c1cccc(Cc2n[nH]c(=O)c3c2CCCC3)c1` [Example 310, 3-((4-oxo-3,4,5,6,7,8-hexahydrophthalazin-1-yl)methyl)-N-(thien-3-ylmethyl)benzamide] the value was 26 nM; for `O=C(NCc1cccnc1)c1cccc(Cc2n[nH]c(=O)c3c2CCCC3)c1` [Example 311, 3-((4-oxo-3,4,5,6,7,8-hexahydrophthalazin-1-yl)methyl)-N-(pyridin-3-ylmethyl)benzamide], 58 nM; for `O=C(NCc1ccncc1)c1cccc(Cc2n[nH]c(=O)c3c2CCCC3)c1` [Example 312, 3-((4-oxo-3,4,5,6,7,8-hexahydrophthalazin-1-yl)methyl)-N-(pyridin-4-ylmethyl)benzamide], 131 nM. For `CN(C)CCNC(=O)c1cccc(Cc2n[nH]c(=O)c3c2CCCC3)c1` [Example 313, N-(2-(dimethylamino)ethyl)-3-((4-oxo-3,4,5,6,7,8-hexahydrophthalazin-1-yl)methyl)benzamide] the value was 95 nM; for `CN(C)CCCNC(=O)c1cccc(Cc2n[nH]c(=O)c3c2CCCC3)c1` [Example 314, N-(3-(dimethylamino)propyl)-3-((4-oxo-3,4,5,6,7,8-hexahydrophthalazin-1-yl)methyl)benzamide], 32 nM. For `O=C(NCCCN1CCCC1)c1cccc(Cc2n[nH]c(=O)c3c2CCCC3)c1` [Example 315, 3-((4-oxo-3,4,5,6,7,8-hexahydrophthalazin-1-yl)methyl)-N-(3-pyrrolidin-1-ylpropyl)benzamide] the value was 23 nM; for `O=C(NCCCN1CCCCC1)c1cccc(Cc2n[nH]c(=O)c3c2CCCC3)c1` [Example 316, 3-((4-oxo-3,4,5,6,7,8-hexahydrophthalazin-1-yl)methyl)-N-(3-piperidin-1-ylpropyl)benzamide], 34 nM; for `O=C(NCCCN1CCOCC1)c1cccc(Cc2n[nH]c(=O)c3c2CCCC3)c1` [Example 317, N-(3-morpholin-4-ylpropyl)-3-((4-oxo-3,4,5,6,7,8-hexahydrophthalazin-1-yl)methyl)benzamide], 25 nM. `O=C(NCCc1c[nH]c2ccccc12)c1cccc(Cc2n[nH]c(=O)c3c2CCCC3)c1` [Example 318, N-(2-(1H-indol-3-yl)ethyl)-3-((4-oxo-3,4,5,6,7,8-hexahydrophthalazin-1-yl)methyl)benzamide]: the Ki was 28 nM. To `O=C(Nc1nccs1)c1cccc(Cc2n[nH]c(=O)c3c2CCCC3)c1` [Example 319, 3-((4-oxo-3,4,5,6,7,8-hexahydrophthalazin-1-yl)methyl)-N-1,3-thiazol-2-ylbenzamide] belongs 94 nM; to `O=C(CNC(=O)OCc1ccccc1)Nc1cccc(CCc2n[nH]c(=O)c3c2CCCC3)c1` [Example 320, benzyl 2-oxo-2-(3-(2-(4-oxo-3,4,5,6,7,8-hexahydrophthalazin-1-yl)ethyl)phenylamino)ethylcarbamate], 165 nM. For the compound `O=C(CCC(=O)c1ccc(Oc2ccccc2)cc1)Nc1cccc(CCc2n[nH]c(=O)c3c2CCCC3)c1` [Example 321, 4-oxo-N-(3-(2-(4-oxo-3,4,5,6,7,8-hexahydrophthalazin-1-yl)ethyl)phenyl)-4-(4-phenoxyphenyl)butanamide], the inhibition constant Ki is 223 nM.

As for `O=C(Nc1cccc(CCc2n[nH]c(=O)c3c2CCCC3)c1)C1CCCN(C(=O)OCc2ccccc2)C1` (stereo not drawn) [Example 322, benzyl 3-(((3-(2-(4-oxo-3,4,5,6,7,8-hexahydrophthalazin-1-yl)ethyl)phenyl)amino)carbonyl)piperidine-1-carboxylate], the Ki came out at 556 nM. In the case of `Cc1ccc(OCC(=O)Nc2cccc(CCc3n[nH]c(=O)c4c3CCCC4)c2)cc1` [Example 323, 2-(4-methylphenoxy)-N-(3-(2-(4-oxo-3,4,5,6,7,8-hexahydrophthalazin-1-yl)ethyl)phenyl)acetamide], the Ki came out at 237 nM.

With `CCc1ccccc1NC(=O)c1cccc(Cc2n[nH]c(=O)c3c2CCCC3)c1` [Example 329, N-(2-ethylphenyl)-3-((4-oxo-3,4,5,6,7,8-hexahydrophthalazin-1-yl)methyl)benzamide], the Ki turned out to be 789 nM. Consider `CCc1cccc(NC(=O)c2cccc(Cc3n[nH]c(=O)c4c3CCCC4)c2)c1` [Example 330, N-(3-ethylphenyl)-3-((4-oxo-3,4,5,6,7,8-hexahydrophthalazin-1-yl)methyl)benzamide], for which the Ki is 99 nM.

For `CCc1ccc(NC(=O)c2cccc(Cc3n[nH]c(=O)c4c3CCCC4)c2)cc1` [Example 331], the Ki was 140 nM.

In the case of `CCCc1ccccc1NC(=O)c1cccc(Cc2n[nH]c(=O)c3c2CCCC3)c1` [Example 332, 3-((4-oxo-3,4,5,6,7,8-hexahydrophthalazin-1-yl)methyl)-N-(2-propylphenyl)benzamide], the Ki is 635 nM. `CC(C)c1ccccc1NC(=O)c1cccc(Cc2n[nH]c(=O)c3c2CCCC3)c1` [Example 333, N-(2-isopropylphenyl)-3-((4-oxo-3,4,5,6,7,8-hexahydrophthalazin-1-yl)methyl)benzamide]: the inhibition constant Ki stood at 892 nM.

For the origin of these results see US9283222B2 (priority 2006, dated 2016).
